Experiments:
[1] = molecular target: T1, phosphorylated α-synuclein (Mus musculus, UniProt O55042); experiment: In vitro fluorescence microscope measurement, brain sections of α-synuclein fibril-inoculated mouse; settings: 30 μM compound, 20% ethanol, 30 minutes; mouse brain section
T1 construct: from tissue; host or cells: brain of C57/BL/6 mouse inoculated in the striatum with recombinant (E. coli) mouse α-synuclein fibrils; sections or living animal
Description: First, mouse α-synuclein was expressed in and extracted from E. coli as a recombinant protein, and then incubated in vitro to form insoluble α-synuclein aggregates. The α-synuclein aggregates were then inoculated into the striatum of a mouse. […] Note that the inoculation of the α-synuclein aggregates into the striatum of the mouse was carried out in the following manner. First, hair on the head of a 9-week-old C57/BL/6 male mouse which had been anesthetized with 1.5% (v/v) isoflurane was removed, and the scalp was disinfected with isodine, followed by application of xylocaine and incision in the scalp to expose the skull. […]
The brain of this α-synuclein fibril-inoculated mouse was extracted, and then sections were prepared. The sections were analyzed by fluorescent staining. […] After the section was mounted in a mounting medium (VECTASHIELD H-1000), an image of an α-synuclein aggregate-enriched area on the section was obtained with use of a fluorescence microscope (DM4000 (excitation wavelength: 391 nm to 437 nm)). […] After the section was subjected to immunohistochemical staining with use of an anti-phosphorylated α-synuclein monoclonal antibody (pS129, abcam, ab59264) (1:1000) and then mounted in a mounting medium (VECTASHIELD H-1000), an image of the same area as above was obtained with use of a fluorescence microscope (DM4000 (excitation wavelength: 460 nm to 500 nm)). […]

α-synuclein aggregates = α-synuclein aggregates (Homo sapiens, UniProt P37840); experiment: In vitro fluorescence microscope measurement, amygdala sections of DLB patient brain; parameters: α-synuclein aggregates formed in the brain of the DLB patient; from tissue; host or cells: post-mortem human brain: amygdala of DLB patient (sections or homogenate); cerebellum of MSA patient; settings: 30 μM test compound
Description: Postmortem human brains were obtained in autopsies carried out with respect to a patient with dementia with Lewy bodies (DLB) and a patient with Alzheimer's disease (AD). In a cryostat (HM560, Carl Zeiss), frozen tissue from the DLB patient was sliced into sections each having a thickness of 20 μm. Brain tissue from the AD patient was fixed in 10% neutral buffered formalin, embedded in a paraffin block, and sliced into sections each having a thickness of 6 μm.
Postfixed fresh frozen sections of amygdala tissue obtained from the brain of the DLB patient and deparaffinized sections of formalin-fixed paraffin-embedded middle frontal gyrus tissue obtained from the brain of the AD patient were used. Each brain section and a 30 μM test compound were incubated in a 50% ethanol solution at room temperature for 30 minutes. Thereafter, the section was washed with a 50% ethanol solution for 5 minutes and with ultrapure water for 3 minutes. This washing was carried out twice. After the section was mounted in a mounting medium (VECTASHIELD H-1000, Vector Laboratories), an image of a lesion-enriched area on the section was obtained with use of a fluorescence microscope (DM4000, Leica, excitation wavelength: 391 nm to 437 nm). In FIG. 1, each arrowhead indicates fluorescence from the compound binding to α-synuclein aggregates in the brain of the DLB patient, each arrow indicates fluorescence from the compound binding to amyloid-β aggregates in the brain of the AD patient, and an asterisk indicates fluorescence from the compound binding to tau aggregates in the brain of the AD patient. The fluorescence intensities of lesion-enriched areas and lesion-free areas (background) were quantified with use of analysis software (Image J). Note that SPAL-T-05 and SPAL-T-06 were each used as the test compound. Note also that BF-227 (2-(2-[2-dimethylaminothiazol-5-yl]ethenyl)-6-(2-[fluoro]ethoxy)benzoxazole (catalog No.: NP039-0)) and PBB3 (2-((1E,3E)-4-(6-(methylamino)pyridin-3-yl)buta-1,3-dienyl)benzo[d]thiazol-6-ol) (catalog No.: NP039-0), each available from NARD INSTITUTE, LTD., were each used as a control compound.

binding to α-synuclein aggregates formed in the brain of the DLB patient (fluorescence) (α-synuclein aggregates; 50% ethanol, room temperature, 30 minutes, amygdala sections): reactivity greater than that of PBB3
Structure (SMILES): CNc1cnc(C#C/C=C/c2nc3ccc(OCC(O)CF)cc3s2)cn1 (stereo not drawn) [SPAL-T-06, (E)-1-fluoro-3-((2-(4-(5-(methylamino)pyrazin-2-yl)but-1-en-3-yn-1-yl)benzo[d]thiazol-6-yl)oxy)propan-2-ol]
binding to lesion caused by phosphorylated α-synuclein (fluorescent staining, co-stained with pS129 antibody) [1]: bound to a lesion caused by phosphorylated α-synuclein | binding selectivity: α-synuclein aggregates (DLB brain) versus tau aggregates or amyloid-β aggregates (AD brain) (α-synuclein aggregates; fluorescence of lesion-enriched vs lesion-free areas): greater than binding of each of SPAL-T-06 and SPAL-T-05 to tau aggregates or amyloid-β aggregates

From US12630544B2, “Compound, α-synuclein aggregate binder, and use thereof” (NATIONAL INSTITUTES FOR QUANTUM SCIENCE AND TECHNOLOGY, priority 2020, dated 2026)
